How the values were obtained:
[1] = test system: severe bilateral leg lymphedema; test: Observation of leg lymphedema in a Hodgkin lymphoma patient in a phase II clinical trial; assay type: in vivo, human; conditions: one Hodgkin lymphoma patient, 800 mg/die, lymphedema from post-radiotherapy compressive lymphatic obstruction
Description: In this patient, lymphedema was due a compressive lymphatic obstruction related to post-radiotherapy sequelae.

[2] = test system: tail lymphedema in C57BL/6 mice; test: Mouse tail model of lymphedema; assay type: in vivo; conditions: 60 mg/kg/die days 5 to 9 and 12 to 16
Description: Six- to eight-wk-old female C57BL/6 mice with body weight of 20 to 25 g, were purchased from Charles River (Milano, Italy, EU). Mice were housed under standard laboratory conditions according to the Applicant's institutional guidelines. Animal experiments were performed according to the Italian laws (Law Decree 116/92 and following additions), which enforce the EU […] Directive, and were approved by the institutional Ethical Committee for Animal Experimentation.
To create lymphedema, a circumferential incision was made through the dermis close to the tail base to sever the dermal lymphatic vessels. The edges of this incision were then pushed apart, thereby severing the deeper draining lymphatics, preventing superficial bleeding, and creating a 2-3 mm gap to delay wound closure.
Sorafenib dosing used in mice experiments is roughly equivalent to a 300 mg daily dosing in humans.
Mice were than randomly assigned to receive two cycles of sorafenib (60 mg/kg/die) from days 5 to 9 and 12 to 16 or control vehicle.

[3] = test system: vascular permeability in mouse tail; test: Miles vascular permeability assay (Evans blue) in mice with surgically induced tail lymphedema; assay type: in vivo
Description: A Miles vascular permeability assay using intrasplenic injection of the blue dye Evans blue was perfomed in untreated and sorafenib-treated mice bearing a surgical-induced tail lymphedema.
Six- to eight-wk-old female C57BL/6 mice with body weight of 20 to 25 g, were used in this experiment. Tail lymphedema was generated by a circumferential incision through the dermis close to the tail base, as described above. […] On day 16, mice received the last dose of sorafenib and 2 hrs later were injected through the spleen with 0.1 ml of 1% Evan's blue in PBS. After 2 h, the mice were exsanguinated under anesthesia, and were perfused with heparin in PBS until lungs and livers were blanched. The distal portion of the tail was then removed and placed in formamide at 37° C. overnight to extract Evan's blue dye. […]

[4] = test system: acquired arm lymphedema; test: Pilot clinical study in breast cancer patients with acquired arm lymphedema; assay type: in vivo, human; conditions: oral 200 mg daily, up to 8 weeks, ten patients
Description: To further evaluate in a clinical setting the anti-lymphedema activity of multi-kinase inhibitor sorafenib, the Applicants performed a pilot study on a compassionate need basis to evaluate the toxicity and the anti-lymphedema effects of multi-kinase inhibitor sorafenib in consenting breast cancer patients with acquired arm lymphedema occurring following surgical dissection of, and/or radiotherapy on axillary lymphnodes. No other treatment options of proven efficacy was available for these patients.
Patients were administered with oral sorafenib at a dose of 200 mg daily.
Therapy was given for a maximum of 8 weeks or until lymphedema progression or appearance of clinical significant toxicity probably related to multi-kinase inhibitor sorafenib.
Within a two-month period of time ten breast cancer patients with acquired lymphedema of the arm were treated with multi-kinase inhibitor sorafenib.
At the end of treatment, the efficacy of multi-kinase inhibitor sorafenib was evaluated as percentage reduction of total arm circumference as compared with pre-treatment values. The median reduction of total arm circumference was 60% (range, 30 to 100). Lymphedema reduction was associated with a 5-10% reduction of body weight.

CNC(=O)c1cc(Oc2ccc(NC(=O)Nc3ccc(Cl)c(C(F)(F)F)c3)cc2)ccn1 [sorafenib, Sorafenib]
regression of severe bilateral leg lymphedema [1]: complete regression
mean (±SEM) tail diameter at lymphedema peak ([2]; day 7 after incision, control peak 63±3 mm on day 15): 58±4 mm
resolution of tail lymphedema ([2]; day 20): complete resolution of lymphedema
mean (±SEM) tail diameter on day 20 ([2]; day 20 after incision, control 58±3, P≦0.0003, baseline 36±1): 36±1 mm
mean (±SEM) OD620 of Evans blue extracted from the tail ([3]; 60 mg/kg, 384 h): 0.09±0.009
reduction of vascular permeability vs untreated mice (extravasated Evans blue) ([3]; day 16, 60 mg/kg/die days 5 to 9 and 12 to 16): 2 fold
median reduction of total arm circumference vs pre-treatment ([4]; end of treatment): 60%
reduction of body weight associated with lymphedema reduction [4]: 5-10%
tolerability ([4]; no dose reduction or discontinuation due to toxicity): well tolerated

From patent US20120101261A1, “USE OF MULTI-KINASE INHIBITORS IN THE TREATMENT OF VASCULAR HYPERPERMEABILITY” (Fondazione IRCCS Istituto Nazionale Dei Tumori, priority 2009, published 2012)
